Assay results from patent US20050288323A1, “Octahydro-indolizine and quinolizine and hexahydro-pyrrolizine” (priority 2000, published 2005).

Biological target: T1, human histamine H3 receptor (Homo sapiens, UniProt Q9Y5N1)
T1 construct: One microgram of supercoiled H3 receptor cDNA was added to the cells and mixed; expressed in transfected cells; membranes
Assay: [3H]-N-methylhistamine binding
Description: Thus in the present invention receptor binding was determined using the human histamine H3 receptor (See Lovenberg et al Mol. Pharmacol. 1999, 1107). Screening using the human receptor is particularly important for the identification of new therapies for the treatment of human disease. Conventional binding assays for example are determined using rat synaptosomes (Garbarg et al J. Pharmacol. Exp. Ther. 1992, 263, 304), rat cortical membranes (West et al Mol. Pharmacol. 1990, 610), and guinea pig brain (Korte et al Biochem. Biophys. Res. Commun. 1990, 978). Only limited studies have been performed previously using human tissue but these allude to significant differences in the pharmacology of rodent and primate receptors (West et al Eur. J. Pharmacol. 1999, 233).
Transfection of Cells with Human Histamine Receptor
A 10 cm tissue culture dish with a confluent monolayer of SK-N-MC cells was split two days prior to transfection. Using sterile technique the media was removed and the cells were detached from the dish by the addition of trypsin. One fifth of the cells were then placed onto a new 10 cm dish. Cells were grown in a 37° C. incubator with 5% CO2 in Minimal Essential Media Eagle with 10% Fetal Bovine Serum. After two days cells were approximately 80% confluent. These were removed from the dish with trypsin and pelleted in a clinical centrifuge. The pellet was then re-suspended in 400 μL complete media and transferred to an electroporation cuvette with a 0.4 cm gap between the electrodes (Bio-Rad #165-2088). One microgram of supercoiled H3 receptor cDNA was added to the cells and mixed. The voltage for the electroporation was set at 0.25 kV, the capacitance was set at 960 μF. After electroporation the cells were diluted into 10 mL complete media and plated onto four 10 cm dishes. Because of the variability in the efficiency of electroporation, four different concentrations of cells were plated. The ratios used were; 1:20, 1:10, 1:5, with the remainder of the cells being added to the fourth dish. The cells were allowed to recover for 24 hours before adding the selection media (complete media with 600 μg/mL G418). After 10 days dishes were analyzed for surviving colonies of cells. Dishes with well isolated colonies were used. Cells from individual colonies were isolated and tested. SK-N-MC cells were used because they give efficient coupling for inhibition of adenylate cyclase. The clones that gave the most robust inhibition of adenylate cyclase in response to histamine were used for further study.
[^3H]-N-methylhistamine Binding
Cell pellets from histamine H3 receptor-expressing SK-N-MC cells were homogenized in 20 mM TrisHCl/0.5 mM EDTA. Supernatants from a 800 g spin were collected, recentrifuged at 30,000 g for 30 minutes. Pellets were re-homogenized in 50 mM Tris/5 mM EDTA (pH 7.4). Membranes were incubated with 0.8 nM [^3H]-N-methylhistamine plus/minus test compounds for 45 min at 25° C. and harvested by rapid filtration over GF/C glass fiber filters (pretreated with 0.3% polyethylenimine) followed by four washes with ice cold buffer. Filters were dried, added to 4 mL scintillation cocktail and then counted on a liquid scintillation counter. Non-specific binding was defined with 10 μM histamine. The pKi values were calculated based on a Kd of 800 pM and a ligand concentration ([L]) of 800 pM according to the formula: Ki=(IC50)/(1+([L]/(Kd))

[1] = [3H]-N-methylhistamine 0.8 nM, membranes of H3 receptor-expressing SK-N-MC cells
[2] = Table 5, [3H]-N-methylhistamine binding

T1 sequence (Q9Y5N1 whole entry): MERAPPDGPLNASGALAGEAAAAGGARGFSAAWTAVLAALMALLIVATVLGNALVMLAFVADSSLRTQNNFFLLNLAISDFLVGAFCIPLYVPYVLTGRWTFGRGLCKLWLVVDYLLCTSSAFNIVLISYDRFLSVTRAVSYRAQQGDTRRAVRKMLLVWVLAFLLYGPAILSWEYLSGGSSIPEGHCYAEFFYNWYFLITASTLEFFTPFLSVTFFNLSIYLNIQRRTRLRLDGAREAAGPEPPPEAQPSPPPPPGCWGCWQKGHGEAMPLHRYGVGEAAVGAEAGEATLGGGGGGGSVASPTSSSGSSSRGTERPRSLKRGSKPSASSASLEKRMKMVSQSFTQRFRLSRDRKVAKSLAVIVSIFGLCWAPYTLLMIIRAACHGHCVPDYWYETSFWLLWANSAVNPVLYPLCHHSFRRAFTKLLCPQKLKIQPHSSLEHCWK

Compound: c1cc(Sc2ccc(C3CCC4CCCCN43)cc2)ccn1 (stereo not shown) [Example 136, Octahydro-3-[4-(4-pyridinylthio)phenyl]indolizine]
- Ki [1]: 7.5 nM

Compound: c1c[nH]c(CNc2ccc([C@H]3CC[C@H]4CCCCN43)cc2)n1 (racemic) [Example 134]
- Ki [2]: 3640 nM

Compound: Nc1ccc(Sc2ccc([C@@H]3CCC[C@@H]4CCCN43)cc2)cc1 (racemic) [Example 39, 5-(4-(4-Aminophenylthio)phenyl)octahydroindolizine]
- Ki [1]: 75 nM

Compound: [O-][n+]1ccc(CNc2ccc([C@H]3CC[C@H]4CCCCN43)cc2)cc1 (racemic) [Example 133]
- Ki [2]: 4380 nM

Compound: C=CC(=O)Nc1ccc([C@@H]2CC[C@@H]3CCCCN32)cc1 (relative stereo) [Example 107, N-[4-(trans-Octahydro-3-indolizinyl)phenyl]propenamide]
- Ki [1]: 327 nM

Compound: N-Methyl-N-[4-(trans-Octahydro-3-indolizinyl)phenyl]-3-piperidinylpropenamide [Example 109]
- Ki [1]: 1 nM

Compound: CS(=O)(=O)Nc1ccc(Sc2ccc([C@@H]3CCC[C@@H]4CCCN43)cc2)cc1 (racemic) [Example 41, 5-[4-(4-Methanesulfonaminophenylthio)phenyl]octahydroindolizine]
- Ki [1]: 75 nM

Compound: c1ccc(N2CCN(Cc3ccc([C@H]4CC[C@H]5CCCCN54)cc3)CC2)cc1 (racemic) [Example 23, trans-3-[4-(N-Phenyl-1-piperazinylmethyl)phenyl]octahydroindolizine]
- Ki [1]: 65 nM

Compound: c1cc([C@@H]2CC[C@@H]3CCCCN32)ccc1NCCCCCN1CCCCC1 (relative stereo) [Example 115, trans-3-[4-(N-5-Piperidylpentylamino)phenyl]octahydroindolizine]
- Ki [1]: 0.7 nM

Compound: Clc1ccc(Cc2ccc([C@H]3CC[C@H]4CCCCN43)cc2)cc1 (racemic) [Example 125]
- Ki [1]: 655 nM

Compound: c1cc(CNc2ccc([C@H]3CC[C@H]4CCCCN43)cc2)cs1 (racemic) [Example 129]
- Ki [2]: 648 nM

Compound: c1ccc(Oc2ccc([C@@H]3CC[C@H]4CCCCN43)cc2)cc1 (racemic) [Example 12]
- Ki (Table 1, [3H]-N-methylhistamine binding): 600 nM

Compound: FC(F)(F)CN1CCCCC1CCOc1ccc([C@H]2CC[C@H]3CCCCN32)cc1 (mixture of isomers) [Example 89, trans-3-{4-[2,2′-(N-Trifluoroethylpiperidinyl)ethoxy]phenyl}octahydroindolizine]
- Ki [1]: 47 nM

Compound: c1ccc([C@H]2C[C@@H]3CCCCN3C2)c(OCCCN2CCCCC2)c1 (relative stereo) [Example 71, anti-2-[2-(3-Piperidinylpropoxy)phenyl]octahydroindolizine]
- Ki [1]: 315 nM

Compound: O/N=C\c1ccsc1-c1ccc([C@H]2CC[C@H]3CCCCN32)cc1 (racemic) [Example 54, tran-3-[4-(3-hydroxyiminomethylthienyl)phenyl]octahydroindolizine]
- Ki ([3H]-N-methylhistamine binding, value printed under example heading without unit): 1480 nM

Compound: N=C1NC(=N)/C(=C/c2ccc([C@H]3CC[C@H]4CCCCN43)cc2)S1 (relative stereo) [Example 46, trans-3-[4-(4-Methylene-1,3-thiazolidine-2,4-diimine)phenyl]octahydroindolizine]
- Ki [1]: 330 nM

Compound: CS(=O)(=O)N(c1cccc(COc2ccc([C@H]3CC[C@H]4CCCCN43)cc2)c1)S(C)(=O)=O (racemic) [Example 82, trans-3-[4-(3-bis-Methansulfonaminobenzyloxy)phenyl]octahydroindolizine]
- Ki [1]: 128 nM

Compound: CN(c1ccc([C@@H]2CC[C@@H]3CCCCN32)cc1)S(=O)(=O)CCN1CCCCC1 (relative stereo) [Example 121, trans-3-{4-[(2-Piperidylethyl)sulfonyl-N-methylamino]phenyl}octahydroindolizine]
- Ki [1]: 19 nM

Compound: Brc1ccc([C@H]2CC[C@H]3CCCCN32)cc1 (racemic) [Example 1, trans-3-(4-bromophenyl)octahydroindolizine]
- Ki [1]: 325 nM
